Assay [1] deals with T1, BTK (Homo sapiens, UniProt Q06187).
T1 construct: purchased Cama
Briefly: Assay to determine activity against BTK. It counts as biochemical. To be noted: 1 mM ATP, 2 nM BTK, 90 minutes at room temperature. The protocol: Solutions of compounds (test or control) in DMSO were prepared at the desired concentrations, and serially diluted to 11 concentrations by 3-fold dilution in 384pp-plate using TECAN EVO200. 20 nL of stock were transferred to 384 plate using Echo550. DMSO was used as vehicle control.
(BTK was obtained from Cama; FLPeptide2 was obtained from PerkinElmer and Ibrutinib was obtained from Selleck.) 5 μL of ATP solution were added to each well, followed by addition of 15 μL of BTK solution to initiate the reaction. (Note the final volume of each well was 20 μL containing MgCl2 (10 mM), Brij-35 (0.01%), DTT (2 mM), BSA (0.05%), EGTA (1 mM), HEPE (pH7.5) (50 mM), FLPeptide (1.5 uM), ATP (1 mM) and BTK (2 nM).
The plates were incubated at room temperature for 90 minutes and then stopping buffer added (75 μL, containing 0.5 M EDTA) to terminate the reaction. Samples from each well were analyzed using EZ reader. The % remaining activity was calculated using read conversion ratio (CR) according to the equation: […]
XLFit (equation 201) was used to calculate IC50's by floating both bottom and top.

The test system of assay [2] is BTK in RAMOS B cells. Briefly: Assay to determine BTK activity in RAMOS B cells (anti-IgM, FLIPR Calcium 6). It counts as cell-based. To be noted: anti-IgM EC80, calcium readout. The protocol: On the day before assay, Ramos B cells were plated in plating medium (RPMI1640 medium containing 1% FBS and 1× pencillin-streptomycin). On the day of the assay, 2× dye solution was prepared following the manual of the FLIRP Calcium 6 Assay Kit: Dilute the dye with assay buffer (20 mM HEPES in IX HBSS, pH7.4); Add probenecid to the final concentration of 5 mM; vortex vigorously for 1-2 minutes. Cells were collected by centrifuging, and the pellet was re-suspended in plating medium. After counting, cells were re-suspended at a density of 3×10^6/ml in plating medium. Equal volume of 2× dye solution was added to the cell suspension. Cells were then plated at 20 μl/well into a 384-well poly-D-lysine coated plate. Plate was centrifuged at 1000 rpm for 3 minutes and then incubated at 37° C. for 2 hours followed by an additional 15-minute incubation at 25° C. Compounds were prepared at 3× concentration in dilution buffer (20 mM HEPES and 0.1% BSA in 1×HBSS, pH 7.4). Serially diluted compound was transferred from source plate to a 384-well compound plate by using an Echo 550 (Labcyte). 20 μl/well compound dilution buffer was added to the compound plate and mixed on plate shaker for 2 mins. 4× EC80 of Anti-IgM (Jackson ImmunoResearch) was prepared in dilution buffer and 20 μl/well was added to a new 384-well compound plate. After 60 mins of incubation at 25° C. in the dark; cell plate, compound plate containing 4×EC80 of anti-IgM and FLIPR tips were placed into FLIPR (Molecular Devices). 10 ul/well of 4×EC80 anti-IgM was transferred to the cell plate by FLIPR. Plates were read for 160 sec with 1 sec interval.

Bounds are passed on as bounds.

T1 sequence (Q06187 whole entry): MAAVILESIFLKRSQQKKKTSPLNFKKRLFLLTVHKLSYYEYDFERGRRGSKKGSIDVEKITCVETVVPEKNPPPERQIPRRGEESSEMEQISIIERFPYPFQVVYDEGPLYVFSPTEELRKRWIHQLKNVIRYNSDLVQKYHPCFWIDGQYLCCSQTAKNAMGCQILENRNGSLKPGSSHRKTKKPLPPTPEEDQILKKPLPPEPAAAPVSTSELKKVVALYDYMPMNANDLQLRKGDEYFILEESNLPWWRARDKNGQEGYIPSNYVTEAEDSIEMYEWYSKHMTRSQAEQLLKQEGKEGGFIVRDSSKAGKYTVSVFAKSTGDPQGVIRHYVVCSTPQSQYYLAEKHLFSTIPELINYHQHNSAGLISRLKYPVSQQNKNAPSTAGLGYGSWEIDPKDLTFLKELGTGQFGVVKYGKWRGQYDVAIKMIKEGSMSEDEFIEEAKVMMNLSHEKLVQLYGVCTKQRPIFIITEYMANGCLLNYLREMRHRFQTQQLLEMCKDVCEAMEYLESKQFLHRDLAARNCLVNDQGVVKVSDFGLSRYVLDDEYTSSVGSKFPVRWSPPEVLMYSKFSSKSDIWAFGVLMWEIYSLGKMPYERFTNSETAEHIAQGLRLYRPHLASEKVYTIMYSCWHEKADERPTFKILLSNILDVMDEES

For the compound `C=CC(=O)N1CCC[C@H](c2cnc(C(N)=O)c3[nH]c4c(c23)CCCC4)C1` [Compound 2-3, (R)-4-(1-acryloylpiperidin-3-yl)-6,7,8,9-tetrahydro-5H-pyrido[3,4-b]indole-1-carboxamide], the IC50 in assay [1] is at least 100 nM; in assay [2] (Homo sapiens, Ramos), at least 100 nM.

Turning to `CC#CC(=O)N[C@H]1CCCC(c2c(F)cc(C(N)=O)c3[nH]c4c(c23)CCC4)C1` (single isomer, unassigned) [Compound 10-6], the IC50 in assay [1] is 10 to 100 nM; in assay [2], at least 100 nM.

For `C=CC(=O)N1CCCC(c2ncc(C(N)=O)c3[nH]c4c(c23)CCCC4)C1` (stereo not shown) [Compound 3-3, 1-(1-acryloylpiperidin-3-yl)-6,7,8,9-tetrahydro-5H-pyrido[4,3-b]indole-4-carboxamide], the IC50 was under 10 nM in assay [1] and under 10 nM in assay [2] (Homo sapiens, Ramos).

Regarding `C=CC(=O)N1CCc2c(cccc2-c2c(F)cc(C(N)=O)c3[nH]c4c(c23)CC2(CC4)CC2)C1` [Compound 7-12, 5-(2-acryloyl-1,2,3,4-tetrahydroisoquinolin-5-yl)-6-fluoro-1,2,4,9-tetrahydrospiro[carbazole-3,1′-cyclopropane]-8-carboxamide], the IC50 was under 10 nM in assay [1] and 10 to 100 nM in assay [2].

Turning to `C=CC(=O)N1CCc2c(cccc2-c2c(F)cc(C(N)=O)c3[nH]c4c(c23)CCCCC4)C1` (single isomer, unassigned) [Compound 5-2, 2-fluoro-1-[2-(prop-2-enoyl)-3,4-dihydro-1H-isoquinolin-5-yl]-5H,6H,7H,8H,9H,10H-cyclohepta[b]indole-4-carboxamide], the 50% inhibitory concentration (IC50) in assay [1] and in assay [2] was at least 100 nM throughout.

`CC#CC(=O)N1CCC=C(c2cnc(C(N)=O)c3[nH]c4c(c23)CCCC4)C1` [Compound 2-8, 4-(1-(but-2-ynoyl)-1,2,5,6-tetrahydropyridin-3-yl)-6,7,8,9-tetrahydro-5H-pyrido[3,4-b]indole-1-carboxamide]: the IC50 in assay [1] is 10 to 100 nM; in assay [2] (Homo sapiens, Ramos), at least 100 nM.

On to `C=CC(=O)N[C@H]1CCCN(c2ncc(C(N)=O)c3[nH]c4c(c23)CCCC4)C1` [Compound 3-4, (S)-1-(3-acrylamidopiperidin-1-yl)-6,7,8,9-tetrahydro-5H-pyrido[4,3-b]indole-4-carboxamide], for which the IC50 in assay [1] is at least 100 nM; in assay [2] (Homo sapiens, Ramos) it was at least 100 nM.

In the case of `C=CC(=O)N1CCC=C(c2ncc(C(N)=O)c3[nH]c4c(c23)CCCC4)C1` [Compound 3-2, 1-(1-acryloyl-1,2,5,6-tetrahydropyridin-3-yl)-6,7,8,9-tetrahydro-5H-pyrido[4,3-b]indole-4-carboxamide], the IC50 is under 10 nM in assay [1] and under 10 nM in assay [2] (Homo sapiens, Ramos).

For `C=CC(=O)N1CCC=C(c2ccc(C(N)=O)c3[nH]c4c(c23)CC2(CC4)CC2)C1` [Compound 7-1, 4-(1-prop-2-enoyl-3,6-dihydro-2H-pyridin-5-yl)spiro[5,7,8,9-tetrahydro-carbazole-6,1′-cyclopropane]-1-carboxamide], the IC50 lay in the range of 10 to 100 nM in assay [1] and 10 to 100 nM in assay [2] (Homo sapiens, Ramos).

`C=CC(=O)N1CCCC(c2c(F)cc(C(N)=O)c3[nH]c4c(c23)CCCCC4)C1` (racemic) [Compound 5-5, 1-(1-acryloylpiperidin-3-yl)-2-fluoro-5,6,7,8,9,10-hexahydrocyclohepta[b]indole-4-carboxamide]: the IC50 in assay [1] lay within 10 to 100 nM; in assay [2] (Homo sapiens, Ramos), 10 to 100 nM.

With `C=CC(=O)N1CCc2c(cccc2-c2c(F)cc(C(N)=O)c3[nH]c4c(c23)CC2(CC4)CC2)C1` [Compound 7-25, 5-(2-acryloyl-1,2,3,4-tetrahydroisoquinolin-5-yl)-6-fluoro-1,2,4,9-tetrahydrospiro[carbazole-3,1′-cyclopropane]-8-carboxamide], the IC50 in assay [1] and in assay [2] was at least 100 nM in each case.

For the compound `C=CC(=O)N1CCC=C(c2ccc(C(N)=O)c3[nH]c4c(c23)C[Si](C)(C)CC4)C1` [Compound 9-7, 9-(1-acryloyl-1,2,5,6-tetrahydropyridin-3-yl)-2,2-dimethyl-2,3,4,5-tetrahydro-1H-silino[4,3-b]indole-6-carboxamide], the IC50 in assay [1] is under 10 nM; in assay [2] (Homo sapiens, Ramos), 10 to 100 nM.

On to `C=CC(=O)N1CCCC(c2cnc(C(N)=O)c3[nH]c4c(c23)CCCC4)C1` (stereo not shown) [Compound 1-1, 4-(1-acryloylpiperidin-3-yl)-6,7,8,9-tetrahydro-5H-pyrido[3,4-b]indole-1-carboxamide], for which the IC50 in assay [1] lay in the range of 10 to 100 nM; in assay [2] (Homo sapiens, Ramos) it was 10 to 100 nM.

`C=CC(=O)N1CCc2c(cccc2-c2c(C)nc(C(N)=O)c3[nH]c4c(c23)CCCC4)C1` (single isomer, unassigned) [Compound 2-5, 4-(2-acryloyl-1,2,3,4-tetrahydroisoquinolin-5-yl)-3-methyl-6,7,8,9-tetrahydro-5H-pyrido[3,4-b]indole-1-carboxamide]: the results for the IC50 in assay [1] and in assay [2] were 10 to 100 nM and at least 100 nM, respectively.

Turning to `CC#CC(=O)N[C@H]1C[C@@H](O)CN(c2c(F)cc(C(N)=O)c3[nH]c4c(c23)CCCCC4)C1` [Compound 4-4, 1-((3S,5R)-3-(but-2-ynamido)-5-hydroxypiperidin-1-yl)-2-fluoro-5,6,7,8,9,10-hexahydrocyclohepta[b]indole-4-carboxamide], the IC50 is 10 to 100 nM in assay [1] and at least 100 nM in assay [2] (Homo sapiens, Ramos).

In the case of `C=CC(=O)N1CCc2c(cccc2-c2ncc(C(N)=O)c3[nH]c4c(c23)CC2(CC4)CC2)C1` [Compound 7-30, 1′-(2-acryloyl-1,2,3,4-tetrahydroisoquinolin-5-yl)-5′,6′,7′,9′-tetrahydrospiro[cyclopropane-1,8′-pyrido[4,3-b]indole]-4′-carboxamide], the IC50 was under 10 nM in assay [1] and 10 to 100 nM in assay [2] (Homo sapiens, Ramos).

In the case of `C=CC(=O)N1CCc2c(cccc2-c2c(F)cc(C(N)=O)c3[nH]c4c(c23)CC2(CCCO2)CC4)C1` (stereo not shown) [Compound 7-15, 5-(2-acryloyl-1,2,3,4-tetrahydroisoquinolin-5-yl)-6-fluoro-1,2,4,4′,5′,9-hexahydro-3′H-spiro[carbazole-3,2′-furan]-8-carboxamide], the IC50 in assay [1] is 10 to 100 nM; in assay [2], at least 100 nM.

On to `C=CC(=O)N[C@H]1C[C@H](F)CN(c2c(F)cc(C(N)=O)c3[nH]c4c(c23)CC2(CC4)CC2)C1` [Compound 7-22, 5-((3S,5S)-3-acrylamido-5-fluoropiperidin-1-yl)-6-fluoro-1,2,4,9-tetrahydrospiro[carbazole-3,1′-cyclopropane]-8-carboxamide], for which the IC50 lay within 10 to 100 nM in assay [1] and 10 to 100 nM in assay [2] (Homo sapiens, Ramos).

With `C=CC(=O)N1CCC=C(c2ccc(C(N)=O)c3[nH]c4c(c23)CC2(CCCO2)CC4)C1` (stereo not shown) [Compound 7-6, 5-(1-acryloyl-1,2,5,6-tetrahydropyridin-3-yl)-1,2,4,4′,5′,9-hexahydro-3′H-spiro[carbazole-3,2′-furan]-8-carboxamide], the concentration for half-maximal inhibition (IC50) in assay [1] was at least 100 nM; in assay [2] (Homo sapiens, Ramos), at least 100 nM.

Regarding `CC#CC(=O)N[C@H]1C[C@H](O)CN(c2c(F)cc(C(N)=O)c3[nH]c4c(c23)CCCCC4)C1` [Compound 4-3, 1-((3S,5S)-3-(but-2-ynamido)-5-hydroxypiperidin-1-yl)-2-fluoro-5,6,7,8,9,10-hexahydrocyclohepta[b]indole-4-carboxamide], the IC50 in assay [1] was 10 to 100 nM; in assay [2] (Homo sapiens, Ramos), 10 to 100 nM.

In general, IC50 refers to the concentration at which inhibition is half-maximal.

The record behind these values is patent US20220009920A1 (GB005, Inc., priority 2020, published 2022).
